# Data as given in ChEMBL document CHEMBL4325871 (Eur J Med Chem, 2019).
# Assays:
# [1] = target: Cyclin-dependent kinase 2/cyclin E1 (Homo sapiens) (UniProt P24864+P24941); assay: Inhibition of human CDK2/cyclin-E assessed as residual activity at 1 uM using histone H1 as substrate by [gamma-33P]-ATP assay relative to control; assay type: protein-complex assay
# [2] = target: Serine/threonine-protein kinase pim-3 (Homo sapiens) (UniProt Q86V86); assay: Inhibition of human PIM3 assessed as residual activity at 1 uM using RSRHSSYPAGT as substrate by [gamma-33P]-ATP assay relative to control
# [3] = target: Serine/threonine-protein kinase ULK3 (Homo sapiens) (UniProt Q6PHR2); assay: Inhibition of human ULK3 assessed as residual activity at 1 uM using MBP as substrate by [gamma-33P]-ATP assay relative to control
# Serine/threonine-protein kinase ULK3 (Homo sapiens), sequence (Q6PHR2 whole entry): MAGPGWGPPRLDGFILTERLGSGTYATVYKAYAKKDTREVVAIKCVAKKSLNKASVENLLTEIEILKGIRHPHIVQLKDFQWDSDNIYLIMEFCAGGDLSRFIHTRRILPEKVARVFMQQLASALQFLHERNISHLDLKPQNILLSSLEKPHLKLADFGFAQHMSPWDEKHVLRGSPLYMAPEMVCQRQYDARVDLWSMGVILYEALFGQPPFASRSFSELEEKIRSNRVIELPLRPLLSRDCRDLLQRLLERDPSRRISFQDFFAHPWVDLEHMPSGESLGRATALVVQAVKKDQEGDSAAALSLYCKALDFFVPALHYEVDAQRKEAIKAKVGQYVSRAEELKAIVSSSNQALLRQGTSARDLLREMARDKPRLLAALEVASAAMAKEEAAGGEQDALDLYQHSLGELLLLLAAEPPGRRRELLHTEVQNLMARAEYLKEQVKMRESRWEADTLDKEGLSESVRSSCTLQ
# [4] = target: Serine/threonine-protein kinase Nek2 (Homo sapiens) (UniProt P51955); assay: Inhibition of human NEK2 assessed as residual activity at 1 uM using MBP as substrate by [gamma-33P]-ATP assay relative to control
# Serine/threonine-protein kinase Nek2 (Homo sapiens), sequence (P51955 whole entry): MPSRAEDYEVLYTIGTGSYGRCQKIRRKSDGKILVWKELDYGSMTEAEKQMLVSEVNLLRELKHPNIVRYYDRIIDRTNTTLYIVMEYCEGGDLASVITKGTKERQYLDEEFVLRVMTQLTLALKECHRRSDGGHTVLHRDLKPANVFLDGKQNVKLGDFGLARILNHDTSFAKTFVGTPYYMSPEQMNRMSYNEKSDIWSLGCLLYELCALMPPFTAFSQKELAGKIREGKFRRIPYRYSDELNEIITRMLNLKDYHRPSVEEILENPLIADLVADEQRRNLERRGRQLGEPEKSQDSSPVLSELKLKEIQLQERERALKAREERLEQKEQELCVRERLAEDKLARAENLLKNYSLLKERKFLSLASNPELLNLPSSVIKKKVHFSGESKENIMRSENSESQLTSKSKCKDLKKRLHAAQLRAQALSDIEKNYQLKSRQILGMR
# [5] = target: Calcium/calmodulin-dependent protein kinase type 1D (Homo sapiens) (UniProt Q8IU85); assay: Inhibition of human CAMK1D assessed as residual activity at 1 uM using KKALRRQETVDAL as substrate by [gamma-33P]-ATP assay relative to control
# [6] = target: Glycogen synthase kinase-3 beta (Homo sapiens) (UniProt P49841); assay: Inhibition of human GSK3B assessed as residual activity at 1 uM using YRRAAVPPSPSLSRHSSPHQ(pS)EDEEE as substrate by [gamma-33P]-ATP assay relative to control
# Glycogen synthase kinase-3 beta (Homo sapiens), sequence (P49841 whole entry, looked up): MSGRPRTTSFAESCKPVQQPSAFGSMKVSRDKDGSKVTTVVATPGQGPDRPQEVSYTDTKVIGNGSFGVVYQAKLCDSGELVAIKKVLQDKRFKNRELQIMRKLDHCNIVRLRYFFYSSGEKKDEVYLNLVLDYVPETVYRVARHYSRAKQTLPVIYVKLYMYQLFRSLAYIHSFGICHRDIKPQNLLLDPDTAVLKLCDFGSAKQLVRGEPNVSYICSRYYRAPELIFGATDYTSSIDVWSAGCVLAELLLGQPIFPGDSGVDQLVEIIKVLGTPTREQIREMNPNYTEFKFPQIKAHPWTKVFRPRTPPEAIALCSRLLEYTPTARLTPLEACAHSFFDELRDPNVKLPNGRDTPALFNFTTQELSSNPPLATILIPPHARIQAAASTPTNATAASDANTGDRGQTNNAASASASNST
# [7] = target: Serine/threonine-protein kinase Nek11 (Homo sapiens) (UniProt Q8NG66); assay: Inhibition of human NEK11 assessed as residual activity at 1 uM using MBP as substrate by [gamma-33P]-ATP assay relative to control
# [8] = target: Mitogen-activated protein kinase kinase kinase 10 (Homo sapiens) (UniProt Q02779); assay: Inhibition of human MLK2 assessed as residual activity at 1 uM using MBP as substrate by [gamma-33P]-ATP assay relative to control
# [9] = target: Casein kinase I isoform epsilon (Homo sapiens) (UniProt P49674); assay: Inhibition of human CK1E assessed as residual activity at 1 uM using KRRRAL[pS]VASLPGL as substrate by [gamma-33P]-ATP assay relative to control
# [10] = target: Proto-oncogene tyrosine-protein kinase receptor Ret (Homo sapiens) (UniProt P07949); assay: Inhibition of human RET assessed as residual activity at 1 uM using KKKVSRSGLYRSPSMPENLNRPR as substrate by [gamma-33P]-ATP assay relative to control
# [11] = target: Protein kinase C delta type (Homo sapiens) (UniProt Q05655); assay: Inhibition of human PKCdelta assessed as residual activity at 1 uM using ERMRPRKRQGSVRRRV as substrate by [gamma-33P]-ATP assay relative to control
# [12] = target: Receptor tyrosine-protein kinase erbB-2 (Homo sapiens) (UniProt P04626); assay: Inhibition of human ERBB2 assessed as residual activity at 1 uM using poly[Glu:Tyr] (4:1) as substrate by [gamma-33P]-ATP assay relative to control
# [13] = target: PAS domain-containing serine/threonine-protein kinase (Homo sapiens) (UniProt Q96RG2); assay: Inhibition of human PASK assessed as residual activity at 1 uM using KKLNRTLSFAEPG as substrate by [gamma-33P]-ATP assay relative to control
# [14] = target: Phosphorylase b kinase gamma catalytic chain, liver/testis isoform (Homo sapiens) (UniProt P15735); assay: Inhibition of human PHKgamma2 assessed as residual activity at 1 uM using MBP as substrate by [gamma-33P]-ATP assay relative to control
# Phosphorylase b kinase gamma catalytic chain, liver/testis isoform (Homo sapiens), sequence (P15735 whole entry, canonical isoform): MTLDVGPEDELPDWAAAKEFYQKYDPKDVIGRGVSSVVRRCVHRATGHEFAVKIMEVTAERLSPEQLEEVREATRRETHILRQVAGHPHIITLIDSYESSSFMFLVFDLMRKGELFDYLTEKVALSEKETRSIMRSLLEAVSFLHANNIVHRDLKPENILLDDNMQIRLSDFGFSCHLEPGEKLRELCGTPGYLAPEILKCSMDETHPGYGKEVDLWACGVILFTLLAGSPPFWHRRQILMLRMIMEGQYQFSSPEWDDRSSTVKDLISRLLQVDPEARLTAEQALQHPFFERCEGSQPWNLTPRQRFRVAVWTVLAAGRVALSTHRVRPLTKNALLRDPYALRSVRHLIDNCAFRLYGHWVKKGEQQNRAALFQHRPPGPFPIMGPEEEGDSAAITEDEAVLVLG
# [15] = target: Mitogen-activated protein kinase 8 (Homo sapiens) (UniProt P45983); assay: Inhibition of human JNK1 assessed as residual activity at 1 uM using ATF2 as substrate by [gamma-33P]-ATP assay relative to control
# Mitogen-activated protein kinase 8 (Homo sapiens), sequence (P45983 whole entry): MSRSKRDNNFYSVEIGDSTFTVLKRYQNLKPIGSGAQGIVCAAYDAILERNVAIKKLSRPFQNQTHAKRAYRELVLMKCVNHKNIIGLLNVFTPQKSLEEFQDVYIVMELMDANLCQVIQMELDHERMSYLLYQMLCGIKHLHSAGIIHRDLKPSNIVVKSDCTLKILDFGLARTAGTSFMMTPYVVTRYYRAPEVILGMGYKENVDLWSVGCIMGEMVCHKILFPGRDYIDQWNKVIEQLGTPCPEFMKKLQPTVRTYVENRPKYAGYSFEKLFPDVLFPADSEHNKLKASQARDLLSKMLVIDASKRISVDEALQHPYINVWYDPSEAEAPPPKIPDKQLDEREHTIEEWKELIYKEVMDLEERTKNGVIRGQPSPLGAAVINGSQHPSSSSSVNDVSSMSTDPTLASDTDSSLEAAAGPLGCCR
# [16] = target: Tyrosine-protein kinase JAK3 (Homo sapiens) (UniProt P52333); assay: Inhibition of human JAK3 assessed as residual activity at 1 uM using poly[Glu:Tyr] (4:1) as substrate by [gamma-33P]-ATP assay relative to control
# Tyrosine-protein kinase JAK3 (Homo sapiens), sequence (P52333 whole entry): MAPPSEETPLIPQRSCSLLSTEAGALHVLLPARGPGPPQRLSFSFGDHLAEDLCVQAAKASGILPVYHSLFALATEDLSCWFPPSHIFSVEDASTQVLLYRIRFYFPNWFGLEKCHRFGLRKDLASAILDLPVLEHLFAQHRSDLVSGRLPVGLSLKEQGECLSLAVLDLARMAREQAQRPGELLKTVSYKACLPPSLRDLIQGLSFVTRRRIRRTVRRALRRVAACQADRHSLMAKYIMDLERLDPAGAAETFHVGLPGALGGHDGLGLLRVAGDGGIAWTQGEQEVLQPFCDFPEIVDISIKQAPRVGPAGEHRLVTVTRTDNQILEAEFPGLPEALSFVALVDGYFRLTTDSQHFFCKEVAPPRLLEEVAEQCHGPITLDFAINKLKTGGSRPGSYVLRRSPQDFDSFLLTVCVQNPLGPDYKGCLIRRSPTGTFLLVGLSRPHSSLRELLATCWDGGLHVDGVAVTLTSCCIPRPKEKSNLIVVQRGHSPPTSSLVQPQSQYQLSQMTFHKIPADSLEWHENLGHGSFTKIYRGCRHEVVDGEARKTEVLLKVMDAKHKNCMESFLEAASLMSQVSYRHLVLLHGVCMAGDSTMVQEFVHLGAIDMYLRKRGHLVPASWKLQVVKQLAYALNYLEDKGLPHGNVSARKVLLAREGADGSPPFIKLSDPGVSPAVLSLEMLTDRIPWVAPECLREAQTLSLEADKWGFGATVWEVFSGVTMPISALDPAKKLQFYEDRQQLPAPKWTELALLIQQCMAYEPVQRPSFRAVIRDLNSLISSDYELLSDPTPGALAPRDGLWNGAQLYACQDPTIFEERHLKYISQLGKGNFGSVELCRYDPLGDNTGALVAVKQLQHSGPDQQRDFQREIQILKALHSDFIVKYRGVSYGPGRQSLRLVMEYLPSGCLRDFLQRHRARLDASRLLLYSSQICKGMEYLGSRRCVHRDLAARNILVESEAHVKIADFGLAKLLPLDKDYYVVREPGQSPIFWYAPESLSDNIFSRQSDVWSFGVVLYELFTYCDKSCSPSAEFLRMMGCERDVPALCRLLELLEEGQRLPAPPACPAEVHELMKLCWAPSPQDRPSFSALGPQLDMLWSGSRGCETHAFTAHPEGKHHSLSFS
# [17] = target: Serine/threonine-protein kinase PLK2 (Homo sapiens) (UniProt Q9NYY3); assay: Inhibition of human PLK2 assessed as residual activity at 1 uM using casein as substrate by [gamma-33P]-ATP assay relative to control
# [18] = target: Protein kinase C theta type (Homo sapiens) (UniProt Q04759); assay: Inhibition of human PKCtheta assessed as residual activity at 1 uM using Histone H1 as substrate by [gamma-33P]-ATP assay relative to control
# Protein kinase C theta type (Homo sapiens), sequence (Q04759 whole entry, looked up): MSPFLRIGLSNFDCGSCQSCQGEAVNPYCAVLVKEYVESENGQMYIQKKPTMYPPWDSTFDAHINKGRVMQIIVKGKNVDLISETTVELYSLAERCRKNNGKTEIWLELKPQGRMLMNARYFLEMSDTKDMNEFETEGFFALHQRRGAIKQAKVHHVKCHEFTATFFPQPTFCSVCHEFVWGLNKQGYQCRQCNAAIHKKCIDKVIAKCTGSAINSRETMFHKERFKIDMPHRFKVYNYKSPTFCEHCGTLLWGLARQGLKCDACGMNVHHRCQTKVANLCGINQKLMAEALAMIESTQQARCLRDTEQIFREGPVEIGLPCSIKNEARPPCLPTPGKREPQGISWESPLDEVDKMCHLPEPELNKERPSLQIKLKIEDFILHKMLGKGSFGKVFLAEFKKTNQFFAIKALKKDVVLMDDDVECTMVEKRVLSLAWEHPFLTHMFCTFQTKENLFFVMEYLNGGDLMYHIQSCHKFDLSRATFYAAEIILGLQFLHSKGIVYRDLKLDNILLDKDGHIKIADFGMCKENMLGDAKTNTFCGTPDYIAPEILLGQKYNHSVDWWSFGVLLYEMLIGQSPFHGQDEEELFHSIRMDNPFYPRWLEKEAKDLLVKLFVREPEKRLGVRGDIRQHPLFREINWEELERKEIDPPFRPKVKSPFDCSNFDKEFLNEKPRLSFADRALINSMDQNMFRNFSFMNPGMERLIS
# [19] = target: Maternal embryonic leucine zipper kinase (Homo sapiens) (UniProt Q14680); assay: Inhibition of human MELK assessed as residual activity at 1 uM using KKLNRTLSFAEPG as substrate by [gamma-33P]-ATP assay relative to control
# Maternal embryonic leucine zipper kinase (Homo sapiens), sequence (Q14680 whole entry, looked up): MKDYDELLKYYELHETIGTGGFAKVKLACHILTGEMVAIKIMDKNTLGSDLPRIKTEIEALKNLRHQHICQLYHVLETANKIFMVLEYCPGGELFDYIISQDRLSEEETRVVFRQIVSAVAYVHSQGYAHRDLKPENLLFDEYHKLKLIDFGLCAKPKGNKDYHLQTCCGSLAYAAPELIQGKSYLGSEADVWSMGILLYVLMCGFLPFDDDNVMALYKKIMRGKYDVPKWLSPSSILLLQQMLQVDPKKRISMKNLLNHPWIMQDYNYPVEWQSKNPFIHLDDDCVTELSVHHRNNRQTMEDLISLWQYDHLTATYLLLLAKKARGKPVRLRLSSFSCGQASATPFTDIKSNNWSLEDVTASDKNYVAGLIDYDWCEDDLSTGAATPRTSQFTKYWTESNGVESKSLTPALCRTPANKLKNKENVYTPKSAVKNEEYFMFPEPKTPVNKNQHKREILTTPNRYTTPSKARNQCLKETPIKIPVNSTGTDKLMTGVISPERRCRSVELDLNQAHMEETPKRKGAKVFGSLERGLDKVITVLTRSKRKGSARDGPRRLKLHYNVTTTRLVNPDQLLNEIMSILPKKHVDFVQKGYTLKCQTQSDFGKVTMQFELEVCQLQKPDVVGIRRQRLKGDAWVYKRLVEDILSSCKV
SMILES,Activity [1] [%],Activity [2] [%],Activity [3] [%],Activity [4] [%],Activity [5] [%],Activity [6] [%],Activity [7] [%],Activity [8] [%],Activity [9] [%],Activity [10] [%],Activity [11] [%],Activity [12] [%],Activity [13] [%],Activity [14] [%],Activity [15] [%],Activity [16] [%],Activity [17] [%],Activity [18] [%],Activity [19] [%]
C(=C\c1ccccc1)/C[N+]12CN3CN(CN(C3)C1)C2,96.3 to 96.9,104 to 107,90.5 to 93.8,106,98.4 to 98.8,93.6 to 94.9,95 to 96.2,96 to 96.1,90.1 to 93.2,–,–,–,–,–,–,–,–,–,–
ClC/C=C/C[N+]12CN3CN(CN(C3)C1)C2,–,–,–,–,–,–,–,–,–,96.4 to 96.7,115 to 117,96.7 to 96.8,94.3 to 95.1,92.2 to 94.9,96 to 96.5,94.2 to 96.6,96.6 to 96.8,111 to 115,93.8 to 96.1
